Reference: PubChem BioAssay AID1919016 (Molecular Pharmacology Branch, DTP, NCI, 2023)
“And” between values parts separate entries of the source, which are not always exact repeats. Equal entries are not always repeated. Each block holds one compound with its values, some of them ahead of it.

System: NCI-H196 complex spheroid growth, percent test/control
Assay: Anticancer human tumor NCI-H196 cell line growth inhibition [AhR];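 also: seven days of drug exposure starting three days after plating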;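 as to viability, T/C: 100% = DMSO vehicle control wells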
Conditions: for viability, T/C: stronger effect = lower value
From the text: Multicellular complex tumor spheroid response to aryl hydrocarbon receptor antagonists in combination with a variety of drugs and investigational agents in selected tumor cell lines
The current study was undertaken to assess response to aryl hydrocarbon receptor antagonists in combination with standard-of-care drugs and investigational agents in solid tumor complex spheroid models. Complex spheroids include a stromal component modeled by human endothelial cells (HUVEC) and fibroblasts modeled by human mesenchymal stem cells (MSCs). The concentration ranges selected for each drug and investigational agent were based upon clinically achievable concentrations if the clinical Cmax of the agent was known.
Compounds. The drugs and investigational agents: BAY 2416964 (NSC825713), GNF351 (NSC835774), CH-223191 (NSC835775), CPI-455 (NSC825282), aza-TdCyd (NSC777586), decitabine (NSC127716), belinostat (NSC758774), entinostat (NSC756642), pevonedistat (NSC761192), tazemetostat (NSC777109), talazoparib (NSC765396), olaparib (NSC753686), selinexor (NSC780203), nedisertib (M3814, NSC802822), bortezomib (NSC756655), venetoclax (NSC766270), doxorubicin (NSC123127), elimusertib (BAY189344, NSC800525), ceralasertib (AZD6738, NSC777638), TAK-243 (NSC785004), alisertib (NSC759677), etoposide (NSC141540), topotecan (NSC609699), eribulin (NSC707389), gemcitabine (NSC613327), carboplatin (NSC241240), cisplatin (NSC119875), and SN-38 (NSC673596) were obtained from the National Cancer Institute (NCI) Developmental Therapeutics Program Chemical Repository (32). The FDA-approved anticancer drug set is available from the Developmental Therapeutics Program at https://dtp.cancer.gov/organization/dscb/obtaining/available plates.htm. […] The stock solutions were prepared in dimethyl sulfoxide (DMSO, Sigma-Aldrich, St. Louis, MO, cat. D2650), except for the platinum compounds which were prepared in saline (Quality Biological, Gaithersburg, MD, cat. 114-055-101), at 800-fold the tested concentration and stored at -70 degrees C prior to their use. All drugs and investigational agents were tested over a range starting from a high concentration at or near the clinical Cmax and decreasing in half-log increments. If the clinical Cmax for an agent had not been determined, the highest concentration tested was 10 microM (Table 1).
Cell Culture. All cells were maintained in an incubator at 37 degrees C and 5% CO2 with 95% humidity. The PDC lines were cultured according to standard operating procedures established by the NCI PDMR (https://pdmr.cancer.gov). Briefly, all PDCs were thawed and cultured in Matrigel-coated flasks prepared with a working solution of 1X Ham's F-12 nutrient mix, without supplementation (Invitrogen, Waltham, MA, cat. 11765054), 100 U/mL penicillin-streptomycin (Invitrogen, cat. 15140122), and 2.5% Matrigel (Corning Inc., Corning, NY, cat. 354248) for the first three passages. All PDCs were cultured in complete DMEM/F-12 media containing advanced DMEM/F-12 (Invitrogen, cat. 12634028), 4.9% defined fetal bovine serum, heat inactivated (HyClone Laboratories Inc., Logan, UT, cat. SH30070.03HI), 389 ng/mL hydrocortisone (Sigma-Aldrich, cat. H4001), 9.7 ng/mL human EGF recombinant protein (Invitrogen, cat. PHG0313), 23.4 microg/mL adenine (Sigma-Aldrich, cat. A2786), 97.3 U/mL penicillin-streptomycin (Invitrogen, cat. 15140122), 1.9 mM L-glutamine (Invitrogen, cat. 25030081), and 9.7 microM Y-27632 dihydrochloride (Tocris Bioscience, Bristol, United Kingdom, cat. 1254). The PDCs were cultured in complete DMEM/F12 media without 10 microM Y-27632 dihydrochloride for at least two passages prior to the screen. The established cell lines NCI-H1341 and […] were cultured in DMEM/F-12, HEPES (Invitrogen, cat. 11330032), 5% defined fetal bovine serum (HyClone Laboratories Inc., cat. SH30070.03), ITS premix universal culture supplement [insulin (5 microg/mL), transferrin (5 microg/mL), and selenious acid (5 ng/mL)] […]

- IC50 (curve of first compound, second compound 0.1 µM): > 10 µM
- IC50 (curve of first compound, second compound 0.316 µM): > 10 µM
- IC50 (curve of first compound, second compound 1 µM): > 10 µM
- IC50 (curve of first compound, second compound 3.16 µM): > 10 µM
- IC50 (curve of first compound, second compound 10 µM): > 10 µM
Compound: O=C(c1cc(Cc2n[nH]c(=O)c3ccccc23)ccc1F)N1CCN(C(=O)C2CC2)CC1 + Cc1ccccc1N=Nc1ccc(NC(=O)c2ccnn2C)c(C)c1
- viability, T/C (second compound 0.1 µM, first compound 0.0316 µM): 109%
- viability, T/C (second compound 0.1 µM, first compound 0.1 µM): 101%
- viability, T/C (second compound 0.1 µM, first compound 0.316 µM): 107%
- viability, T/C (second compound 0.1 µM, first compound 1 µM): 94.1%
- viability, T/C (second compound 0.1 µM, first compound 3.16 µM): 91.4%
- viability, T/C (second compound 0.1 µM, first compound 10 µM): 102%
- viability, T/C (second compound 0.316 µM, first compound 0.0316 µM): 99.5%
- viability, T/C (second compound 0.316 µM, first compound 0.1 µM): 103%
- viability, T/C (second compound 0.316 µM, first compound 0.316 µM): 102%
- viability, T/C (second compound 0.316 µM, first compound 1 µM): 93.1%
- viability, T/C (second compound 0.316 µM, first compound 3.16 µM): 108%
- viability, T/C (second compound 0.316 µM, first compound 10 µM): 102%
- viability, T/C (second compound 1 µM, first compound 0.0316 µM): 99.4%
- viability, T/C (second compound 1 µM, first compound 0.1 µM): 107%
- viability, T/C (second compound 1 µM, first compound 0.316 µM): 98.3%
- viability, T/C (second compound 1 µM, first compound 1 µM): 99.1%
- viability, T/C (second compound 1 µM, first compound 3.16 µM): 100%
- viability, T/C (second compound 1 µM, first compound 10 µM): 93.6%
- viability, T/C (second compound 3.16 µM, first compound 0.0316 µM): 90.8%
- viability, T/C (second compound 3.16 µM, first compound 0.1 µM): 105%
- viability, T/C (second compound 3.16 µM, first compound 0.316 µM): 95.9%
- viability, T/C (second compound 3.16 µM, first compound 1 µM): 108%
- viability, T/C (second compound 3.16 µM, first compound 3.16 µM): 96.9%
- viability, T/C (second compound 3.16 µM, first compound 10 µM): 101%
- viability, T/C (second compound 10 µM, first compound 0.0316 µM): 87.2%
- viability, T/C (second compound 10 µM, first compound 0.1 µM): 90.1%
- viability, T/C (second compound 10 µM, first compound 0.316 µM): 99.1%
- viability, T/C (second compound 10 µM, first compound 1 µM): 98.8%
- viability, T/C (second compound 10 µM, first compound 3.16 µM): 103%
- viability, T/C (second compound 10 µM, first compound 10 µM): 83.4%

- IC50 (curve of compound): 10 µM and > 10 µM
Compound: Nc1ccn(C2OC(CO)C(O)C2(F)F)c(=O)n1 (configuration not stated)
- viability, T/C (compound 0.0316 µM): 72.3% and 95.5% and 90.8%
- viability, T/C (compound 0.1 µM): 57.2% and 87.9% and 86.6%
- viability, T/C (compound 0.316 µM): 46.1% and 58.9% and 65.1%
- viability, T/C (compound 1 µM): 50.2% and 56.8% and 62.2%
- viability, T/C (compound 3.16 µM): 61.4% and 61.8% and 66.2%
- viability, T/C (compound 10 µM): 56.5% and 68.2% and 66.8%
